In article PMC4893628, “Chalcone-based Selective Inhibitors of a C4 Plant Key Enzyme as Novel Potential Herbicides” (Scientific Reports, 2016):
Like-named read-outs stand apart in the source and are kept apart here.

Assays:
Assay type in all cases: cell-based
[1] = tested on: Escherichia coli K-12 MG1655; test: Bacterial growth in microscale cultivation, E. coli; details: relative to control; for activity at 0.3 µM / activity at 3 µM / activity at 30 µM: Escherichia coli
In short: (§1)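 In a BioLector microscale system shaken at 1200 rpm, growth was tracked by backscatter at 620 nm, and final signal, growth rate (h⁻¹) and lag-phase length were scored against DMSO-only controls. Starting OD600 was 0.5, or 0.25 for B. subtilis. Inhibitors came from DMSO stocks, with trans-chalcone capped at 400 μM and 2'-hydroxychalcone at 100 μM.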

Bacillus subtilis 168 = test: Bacterial growth in microscale cultivation, B. subtilis; details: relative to control
In short: as §1

[2] = tested on: Corynebacterium glutamicum ATCC13032; test: Bacterial growth in microscale cultivation, C. glutamicum; details: relative to control; for activity at 0.3 µM / activity at 3 µM / activity at 30 µM: Corynebacterium glutamicum
In short: as §1

[3] = tested on: Pseudomonas putida KT2440; test: Bacterial growth in microscale cultivation, P. putida; details: relative to control; for activity at 0.3 µM / activity at 3 µM / activity at 30 µM: Pseudomonas putida
In short: as §1

O=C(/C=C/c1cc(O)c(O)c(O)c1)c1ccc(O)cc1O [Compound 9, 2′,4′,3,4,5-Pentahydroxychalcone]
activity at 0.3 µM ([1]; MG1655, complex medium, 0.3 µM, read-out: Final Backscatter): 100% | activity at 0.3 µM ([1]; MG1655, complex medium, 0.3 µM, read-out: Growth rate): 103% | activity at 3 µM ([1]; MG1655, complex medium, 3 µM, read-out: Final Backscatter): 99.7% | activity at 3 µM ([1]; MG1655, complex medium, 3 µM, read-out: Growth rate): 95.4% | activity at 30 µM ([1]; MG1655, complex medium, 30 µM, read-out: Final Backscatter): 98.2% | activity at 30 µM ([1]; MG1655, complex medium, 30 µM, read-out: Growth rate): 87.6% | activity at 0.3 µM ([1]; MG1655, minimal medium, 0.3 µM, read-out: Final Backscatter): 100% | activity at 0.3 µM ([1]; MG1655, minimal medium, 0.3 µM, read-out: Growth rate): 106% | activity at 3 µM ([1]; MG1655, minimal medium, 3 µM, read-out: Final Backscatter): 101% | activity at 3 µM ([1]; MG1655, minimal medium, 3 µM, read-out: Growth rate): 110% | activity at 30 µM ([1]; MG1655, minimal medium, 30 µM, read-out: Final Backscatter): 102% | activity at 30 µM ([1]; MG1655, minimal medium, 30 µM, read-out: Growth rate): 110% | Lag Phase ([1]; complex medium, 0.3 µM): 103,4% | Lag Phase ([1]; complex medium, 3 µM): 103,4% | Lag Phase ([1]; complex medium, 30 µM): 110,3% | Lag Phase ([1]; minimal medium, 0.3 µM): 100,0% | Lag Phase ([1]; minimal medium, 3 µM): 98,2% | Lag Phase ([1]; minimal medium, 30 µM): 96,4% | activity at 0.3 µM (Bacillus subtilis 168; Bacillus subtilis, 168, complex medium, 0.3 µM, read-out: Final Backscatter): 100% | activity at 0.3 µM (Bacillus subtilis 168; Bacillus subtilis, 168, complex medium, 0.3 µM, read-out: Growth rate): 111% | activity at 3 µM (Bacillus subtilis 168; Bacillus subtilis, 168, complex medium, 3 µM, read-out: Final Backscatter): 99.7% | activity at 3 µM (Bacillus subtilis 168; Bacillus subtilis, 168, complex medium, 3 µM, read-out: Growth rate): 112% | activity at 30 µM (Bacillus subtilis 168; Bacillus subtilis, 168, complex medium, 30 µM, read-out: Final Backscatter): 98.6% | activity at 30 µM (Bacillus subtilis 168; Bacillus subtilis, 168, complex medium, 30 µM, read-out: Growth rate): 104% | activity at 0.3 µM (Bacillus subtilis 168; Bacillus subtilis, 168, minimal medium, 0.3 µM, read-out: Final Backscatter): 104% | activity at 0.3 µM (Bacillus subtilis 168; Bacillus subtilis, 168, minimal medium, 0.3 µM, read-out: Growth rate): 99.6% | activity at 3 µM (Bacillus subtilis 168; Bacillus subtilis, 168, minimal medium, 3 µM, read-out: Final Backscatter): 103% | activity at 3 µM (Bacillus subtilis 168; Bacillus subtilis, 168, minimal medium, 3 µM, read-out: Growth rate): 101% | activity at 30 µM (Bacillus subtilis 168; Bacillus subtilis, 168, minimal medium, 30 µM, read-out: Final Backscatter): 107% | activity at 30 µM (Bacillus subtilis 168; Bacillus subtilis, 168, minimal medium, 30 µM, read-out: Growth rate): 90.7% | Lag Phase (Bacillus subtilis 168; complex medium, 0.3 µM): 100,0% | Lag Phase (Bacillus subtilis 168; complex medium, 3 µM): 100,0% | Lag Phase (Bacillus subtilis 168; complex medium, 30 µM): 97,4% | Lag Phase (Bacillus subtilis 168; minimal medium, 0.3 µM): 91,7% | Lag Phase (Bacillus subtilis 168; minimal medium, 3 µM): 98,8% | Lag Phase (Bacillus subtilis 168; minimal medium, 30 µM): 94,1% | activity at 0.3 µM ([2]; ATCC13032, complex medium, 0.3 µM, read-out: Final Backscatter): 99.6% | activity at 0.3 µM ([2]; ATCC13032, complex medium, 0.3 µM, read-out: Growth rate): 104% | activity at 3 µM ([2]; ATCC13032, complex medium, 3 µM, read-out: Final Backscatter): 102% | activity at 3 µM ([2]; ATCC13032, complex medium, 3 µM, read-out: Growth rate): 111% | activity at 30 µM ([2]; ATCC13032, complex medium, 30 µM, read-out: Final Backscatter): 96.7% | activity at 30 µM ([2]; ATCC13032, complex medium, 30 µM, read-out: Growth rate): 112% | activity at 0.3 µM ([2]; ATCC13032, minimal medium, 0.3 µM, read-out: Final Backscatter): 99.9% | activity at 0.3 µM ([2]; ATCC13032, minimal medium, 0.3 µM, read-out: Growth rate): 104% | activity at 3 µM ([2]; ATCC13032, minimal medium, 3 µM, read-out: Final Backscatter): 96.9% | activity at 3 µM ([2]; ATCC13032, minimal medium, 3 µM, read-out: Growth rate): 103% | activity at 30 µM ([2]; ATCC13032, minimal medium, 30 µM, read-out: Final Backscatter): 97.7% | activity at 30 µM ([2]; ATCC13032, minimal medium, 30 µM, read-out: Growth rate): 97.3% | Lag Phase ([2]; complex medium, 0.3 µM): 98,5% | Lag Phase ([2]; complex medium, 3 µM): 98,0% | Lag Phase ([2]; complex medium, 30 µM): 94,5% | Lag Phase ([2]; minimal medium, 0.3 µM): 98,6% | Lag Phase ([2]; minimal medium, 3 µM): 98,6% | Lag Phase ([2]; minimal medium, 30 µM): 98,6% | activity at 0.3 µM ([3]; KT2440, complex medium, 0.3 µM, read-out: Final Backscatter): 94.7% | activity at 0.3 µM ([3]; KT2440, complex medium, 0.3 µM, read-out: Growth rate): 99.4% | activity at 3 µM ([3]; KT2440, complex medium, 3 µM, read-out: Final Backscatter): 96.9% | activity at 3 µM ([3]; KT2440, complex medium, 3 µM, read-out: Growth rate): 101% | activity at 30 µM ([3]; KT2440, complex medium, 30 µM, read-out: Final Backscatter): 93% | activity at 30 µM ([3]; KT2440, complex medium, 30 µM, read-out: Growth rate): 102% | activity at 0.3 µM ([3]; KT2440, minimal medium, 0.3 µM, read-out: Final Backscatter): 93.1% | activity at 0.3 µM ([3]; KT2440, minimal medium, 0.3 µM, read-out: Growth rate): 109% | activity at 3 µM ([3]; KT2440, minimal medium, 3 µM, read-out: Final Backscatter): 96.5% | activity at 3 µM ([3]; KT2440, minimal medium, 3 µM, read-out: Growth rate): 108% | activity at 30 µM ([3]; KT2440, minimal medium, 30 µM, read-out: Final Backscatter): 98.3% | activity at 30 µM ([3]; KT2440, minimal medium, 30 µM, read-out: Growth rate): 108% | Lag Phase ([3]; complex medium, 0.3 µM): 101,2% | Lag Phase ([3]; complex medium, 3 µM): 102,4% | Lag Phase ([3]; complex medium, 30 µM): 99,4% | Lag Phase ([3]; minimal medium, 0.3 µM): 99,0% | Lag Phase ([3]; minimal medium, 3 µM): 99,3% | Lag Phase ([3]; minimal medium, 30 µM): 99,7%
